# Read-outs that look alike come from different tables or passages of the source.
# Assays:
# [1] = tested on: mTOR signaling in Flp-In T-REx 293 FKBP12 V55G cells; assay: mTOR signaling by Western blot in FKBP12 V55G-expressing Flp-In 293 cells; format: cell-based, human; conditions: for IC50: Homo sapiens, 24 h treatment, mutant (FKBP12 V55G) 293 cells
# Description: All cell lines were maintained in DMEM (Gibco) supplemented with 10% heat-inactivated FBS (Axenia Biologix) at 37 °C in 5% CO2. Flp-In T-REx 293 cells were obtained from Thermo Fisher supplemented with 15 µg/mL blasticin and 100 µg/mL Zeocin. Flp-In T-REx 293 FKBP12 V55G cells were supplemented with 15 µg/mL blasticin and 150 µg/mL hygromycin B. FKBP12 V55G expression was induced with 1 µg/mL doxycycline 24 h prior to drug treatments. MCF7 cells were obtained from ATCC (American Type Culture Collection), and MCF7 mTOR F2108L cells were described previously ([30]). When indicated, cells were treated with drugs at 60–80% confluency at a final DMSO concentration of 0.1%. At the end of the treatment period, cells were placed on ice and washed once with PBS. Cells were scraped with a spatula and lysed in radioimmunoprecipitation assay (RIPA) buffer supplemented with protease and phosphatase inhibitors (cOmplete and phosSTOP, Roche) on ice for 5 min. Lysates were clarified by high-speed centrifugation. Lysate concentration was determined by Bradford assay (Thermo Fisher) and adjusted to 2 mg/mL with additional RIPA buffer. Samples were mixed with 5x SDS loading dye and heated at 95 °C for 5 min.
# SDS-PAGE was run with Novex 4–12% Bis-Tris gel (Invitrogen) in MOPS running buffer at 200V for 40 min. Samples were loaded at 20 µg lysate per lane. Protein bands were transferred onto 0.2 µm nitrocellulose membranes (Bio-Rad) using wet tank transfer apparatus (Bio-Rad Criterion Blotter) in 1x TOWBIN buffer with 10% methanol at 75V for 45 min. Membranes were blocked in 5% BSA-TBST (tris-buffered saline, 0.1% Tween 20) for 1 h at room temperature. Membranes were cut into separate strips for each primary antibody. Primary antibody binding was performed with the indicated antibodies at manufacturer’s recommended dilution in 5% BSA-TBST at 4 °C overnight. After three 5 min. washes with TBST, secondary antibodies (Li-COR) were added as solutions in 5% skim milk-TBST at 1:10,000 dilutions. Secondary antibodies were incubated for 1 h at room temperature. Following three 5 min. washes with TBST, membranes were imaged on a Li-COR Odyssey fluorescence imager. Image contrast was adjusted independently for each strip using the “Auto” adjustment function in Fiji. Blot quantification was performed in Fiji, and data were graphed and fit in Prism 9 (GraphPad). The following primary antibodies were obtained from Cell Signaling Technology (CST), Abcam (ab), and ProteinTech (PT): S6 (CST 2317), phospho-S6 S240/244 (CST 5364), S6K (CST 2708), phospho-S6K T389 (CST 9206), Akt (CST 2920), phospho-Akt S473 (CST 4060), HA (CST 3724), FKBP12 (ab58072), and GAPDH (PT 60004). For detection of phosphorylated and total protein, primary antibodies for phospho-Akt/Akt, phospho-S6K/S6K, or phospho-S6/S6 were combined and detected using a mixture of species-specific secondary antibodies with orthogonal fluorescence to allow simultaneous detection of phosphorylated and total protein from a single membrane, or membrane was stripped (Cell Signaling Technology) after detection of phosphorylated protein and then reblocked and reprobed with primary antibody for total protein. […]
# Generation of 293 Flp-In T-REx FKBP12 V55G cell line
# FKBP12 V55G-expressing Flp-In T-REx 293 cells were generated using recommended conditions from Thermo Fisher. Briefly, human FKBP12 V55G-HA coding sequence was cloned into the pcDNA5/FRT/TO targeting vector by Gibson assembly. […]
# [2] = tested on: Drosophila larvae (w1118 control and FKBP12 V55G transgenic); assay: Drosophila larval development (pupae 9 d after egg laying); format: in vivo
# Description: All Drosophila stocks and crosses were maintained on standard cornmeal-molasses food at 25 °C using a 12-h light/dark cycle. To generate UAS-FKBP12 V55G-HA transgenic lines, human FKBP12 V55G-HA ORF was cloned into a pUAST-attB vector between EcoR-I and Xho-I restriction sites. This construct was then integrated into an attB site using phiC31 integrase with the assistance of Rainbow Transgenic Flies, Inc. The driver stocks da-GAL4 (ubiquitous), elav-GAL4 and nSyb-GAL4 (neuronal-specific), Mef2-GAL4 and mhc-GAL4 (musculature), and 2–286-GAL4 and phm-GAL4 (ring-gland-specific) were obtained from Bloomington Drosophila Stock Center. The crossing schemes used in this study are depicted in SI Appendix, Fig. S11. For rapamycin or Rapa*3Z related experiments, fly food was prepared freshly 24 h before each experiment.
# Fly food containing ethanol vehicle was used as control. […] Three biological replicates were used for each experiment. Data were analyzed using Prism 9.0 (GraphPad).
smiles,measurement,setting,value
CCO/N=C1/C[C@@H]([C@H](C)C[C@@H]2CC[C@@H](O)[C@H](OC)C2)OC(=O)[C@@H]2CCCCN2C(=O)C(=O)[C@]2(O)O[C@@H](CC[C@H]2C)C[C@H](OC)/C(C)=C/C=C/C=C/[C@@H](C)C[C@@H](C)C(=O)[C@H](OC)[C@H](O)/C(C)=C/[C@H]1C [Rapa*-3Z],Time to half-maximal inhibition of S6 phosphorylation,"[1]; 10 nM, mutant FKBP12 293 cells",31 min
same,Akt phosphorylation (mTORC2 substrate),"[1]; 24 h, mutant vs wild-type 293 cells",selectively reduced Akt phosphorylation in the mutant 293 cells at higher doses
same,IC50,[1]; read-out: IC50 phospho-S6,1.3 nM
same,IC50,[1]; read-out: IC50 phospho-S6K,1 nM
same,Increase in sensitivity in mutant-expressing cells vs wild-type cells,"[1]; p-S6K and p-S6 IC50s, 24 h",~100 fold
same,"Larval-to-pupal transition, FKBP12 V55G in ring gland (independent driver)","[2]; 2-286-GAL4, 100 µM, 9 d",nearly eliminated the larval-to-pupal transition
same,Dose necessary for complete inhibition of larval development,"[2]; FKBP12 V55G animals (ubiquitous da-GAL4), in food, 9 d after egg laying",100 µM
same,"Larval-to-pupal transition, FKBP12 V55G in musculature and nervous system (independent drivers)","[2]; Mef2-GAL4 and elav-GAL4, 100 µM, 9 d","significant, but lesser, inhibition"
same,"Effect on larval development, ubiquitous FKBP12 V55G expression","[2]; da-GAL4 > FKBP12 V55G, 100 µM",potently inhibited larval development
same,"Pupal formation, FKBP12 V55G in musculature and nervous system","[2]; mhc-GAL4 and nSyb-GAL4, 100 µM, 9 d after egg laying","similar, but less severe, inhibition of pupal formation"
same,"Pupal formation, FKBP12 V55G in ring gland","[2]; phm-GAL4, 100 µM, 9 d after egg laying",failed to pupate
same,Effect on larval development in control flies at 300 and 400 µM,"[2]; w1118, 300 and 400 µM, 14 days after egg laying",no influence on larval development
same,Effect on larval development in wild-type animals,"[2]; wild-type (w1118) larvae, compound in food",no effect
